Measured values reported in patent publication US7432276B2, “ABCA1 elevating compounds” (CV Therapeutics, Inc., priority 2005, dated 2008).

These molecules were tested on ABCA1 mRNA (assay: ABCA1 mRNA induction in THP-1 cells, QuantiGene branched DNA assay). Conditions: 10 μM test compound, 18-20 hours.
Type: cell-based
Procedure, shortened: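 THP-1 cells, grown to subconfluence, treated with compounds at 10 and 3 μM in DMEM/BSA for 18–20 h. Lysates hybridized with ABCA1-specific probe 16–18 h at 53 °C; QuantiGene branched DNA luminescence gives fold increase over DMSO.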

Row | SMILES | ABCA1 Induction Fold Increase over DMSO Vehicle [FOLD INCREASE]
1 | COc1ccc(Br)c2c1OCC1C2Nc2ccc(C(N)=O)cc2C1(C)C (stereo not shown) [Number 81, 1-bromo-4-methoxy-7,7-dimethyl-7,12,12a,6a-tetrahydrochromano[4,3-b]quinoline-9-carboxamide] | 1.9
2 | COc1cccc2c1[C@H]1Nc3ccc(-c4nnn[nH]4)cc3C(C)(C)[C@H]1CO2 [Number 71, (12aS,6aR)-1-methoxy-7,7-dimethyl-9-(1,2,3,4-tetraazol-5-yl)-7,12,12a,6a-tetrahydrochromano[4,3-b]quinoline] | 9.5
3 | COc1cccc2c1OC[C@@H]1[C@@H]2Nc2ccc(C(=O)O)cc2C1(C)C [Number 49, (12aS,6aS)-4-methoxy-7,7-dimethyl-7,12,12a,6a-tetrahydrochromano[4,3-b]quinoline-9-carboxylic acid] | 1.7
4 | COc1cccc2c1[C@H]1Nc3ccc(-c4ccc(CCC(=O)O)cc4)cc3C(C)(C)[C@H]1CO2 [Number 114, 3-[4-((12aS,6aR)-1-methoxy-7,7-dimethyl-7,12,12a,6a-tetrahydrochromano[4,3-b]quinolin-9-yl)phenyl]propanoic acid] | 2.7
5 | COc1cc(-c2ccccc2)cc2c1OC[C@H]1[C@@H]2Nc2ccc(C(O)(C(F)(F)F)C(F)(F)F)cc2C1(C)C [Number 77, 2-((12aS,6aR)-4-methoxy-7,7-dimethyl-2-phenyl(7,12,12a,6a-tetrahydrochromano[4,3-b]quinolin-9-yl))-1,1,1,3,3,3-hexafluoropropan-2-ol] | 5.3
6 | CC1(C)c2cc(C(O)(C(F)(F)F)C(F)(F)F)ccc2N[C@@H]2c3cc(OC(F)(F)F)ccc3OC[C@H]21 [Number 9, 2-[(12aS,6aS)-7,7-dimethyl-2-(trifluoromethoxy)(7,12,12a,6a-tetrahydrochromano[4,3-b]quinolin-9-yl)]-1,1,1,3,3,3-hexafluoropropan-2-ol] | 2.4
7 | COc1cccc2c1[C@H]1Nc3ccc(-c4cnco4)cc3C(C)(C)[C@H]1CO2 [Number 62, (12aS,6aR)-1-methoxy-7,7-dimethyl-9-(1,3-oxazol-5-yl)-7,12,12a,6a-tetrahydrochromano[4,3-b]quinoline] | 10.6
8 | COc1ccc(Br)c2c1OC[C@@H]1[C@H]2Nc2ccc(C(O)(C(F)(F)F)C(F)(F)F)cc2C1(C)C [Number 64, 2-((6aS,12aR)-1-bromo-4-methoxy-7,7-dimethyl(7,12,12a,6a-tetrahydrochromano[4,3-b]quinolin-9-yl))-1,1,1,3,3,3-hexafluoropropan-2-ol] | 2.5
9 | COC(=O)c1cccc(-c2ccc3c(c2)C(C)(C)[C@H]2COc4cccc(OC)c4[C@H]2N3)c1 [Number 113, methyl 3-((12aS,6aR)-1-methoxy-7,7-dimethyl-7,12,12a,6a-tetrahydrochromano[4,3-b]quinolin-9-yl)benzoate] | 1.5
10 | CC(C)=CCOC(=O)c1ccc2c(c1)OCC1C2Nc2ccc(CB(O)O)cc2C1(C)C (stereo not shown) [Number 11, 3-methylbut-2-enyl 9-(dihydroxyboramethyl)-7,7-dimethyl-7,12,12a,6a-tetrahydrochromano[4,3-b]quinoline-3-carboxylate] | 1.7
11 | COc1cccc2c1OC[C@@H]1[C@H]2Nc2ccccc2C1(C)C [Number 37, (6aS,12aR)-4-methoxy-7,7-dimethyl-7,12,12a,6a-tetrahydrochromano[4,3-b]quinoline] | 8.3
12 | CC(C)=CCOC(=O)c1ccc2c(c1)OC[C@@H]1[C@H]2Nc2ccc(B(O)O)cc2C1(C)C [Number 10, 3-methylbut-2-enyl (6aS,12aR)-9-(dihydroxyboramethyl)-7,7-dimethyl-7,12,12a,6a-tetrahydrochromano[4,3-b]quinoline-3-carboxylate] | 1.5
13 | COc1ccc(-c2ccc3c(c2)C(C)(C)[C@H]2COc4cccc(OC)c4[C@H]2N3)cc1 [Number 112, 1-((12aS,6aR)-1-methoxy-7,7-dimethyl(7,12,12a,6a-tetrahydrochromano[4,3-b]quinolin-9-yl))-4-methoxybenzene] | 1.7
14 | COc1cccc2c1[C@H]1Nc3ccc(-c4ccc(C(N)=O)cc4)cc3C(C)(C)[C@H]1CO2 [Number 108, 4-((12aS,6aR)-1-methoxy-7,7-dimethyl-7,12,12a,6a-tetrahydrochromano[4,3-b]quinolin-9-yl)benzamide] | 4.7
15 | COc1cccc2c1[C@H]1Nc3ccc(N4CCS(=O)(=O)CC4)cc3C(C)(C)[C@H]1CO2 [Number 72, 4-((12aS,6aR)-1-methoxy-7,7-dimethyl-7,12,12a,6a-tetrahydrochromano[4,3-b]quinolin-9-yl)-1,4-thiazaperhydroine-1,1-dione] | 8.4
16 | COc1cccc2c1[C@H]1Nc3ccc(-c4ccc(F)cc4)cc3C(C)(C)[C@H]1CO2 [Number 109, (12aS,6aR)-9-(4-fluorophenyl)-1-methoxy-7,7-dimethyl-7,12,12a,6a-tetrahydrochromano[4,3-b]quinoline] | 4.1

Same assay, conditions: Homo sapiens, 10 μM test compound, 18-20 hours, read-out: ABCA1 Induction Fold Increase over DMSO Vehicle

Row | SMILES | fold induction at 10 µM
17 | CN(C)C(=O)/C=C/c1ccc2c(c1)C1Nc3ccc(C(O)(C(F)(F)F)C(F)(F)F)cc3C(C)(C)C1CO2 (stereo not shown) [Number 36, (2E)-3-{7,7-dimethyl-9-[2,2,2-trifluoro-1-hydroxy-1-(trifluoromethyl)ethyl](7,12,12a,6a-tetrahydrochromano[4,3-b]quinolin-2-yl)}-N,N-dimethylprop-2-enamide] | 5.3
18 | COc1cccc2c1[C@H]1Nc3ccc(-n4cc(C(=O)O)cn4)cc3C(C)(C)[C@H]1CO2 [Number 136, 1-((6aR,12aS)-6a,7,12,12a-tetrahydro-1-methoxy-7,7-dimethyl-6H-chromeno[4,3-b]quinolin-9-yl)-1H-pyrazole-4-carboxylic acid] | 4.1
19 | CC1(C)c2cc(-c3nc(C(=O)O)co3)ccc2N[C@@H]2c3c(F)cccc3OC[C@@H]21 [Number 131, 2-((6aR,12aS)-1-fluoro-6a,7,12,12a-tetrahydro-7,7-dimethyl-6H-chromeno[4,3-b]quinolin-9-yl)oxazole-4-carboxylic acid] | 2
20 | COc1cccc2c1[C@H]1Nc3ccc(S(=O)(=O)CC(=O)O)cc3C(C)(C)[C@H]1CO2 [Number 124, 2-((6aR,12aS)-6a,7,12,12a-tetrahydro-1-methoxy-7,7-dimethyl-6H-chromeno[4,3-b]quinolin-9-ylsulfonyl)acetic acid] | 3.3
21 | COc1cc(-c2cn[nH]c2)cc2c1OC[C@@H]1[C@@H]2Nc2ccc(-c3cnco3)cc2C1(C)C [Number 160, (6aS,12aS)-6a,7,12,12a-tetrahydro-4-methoxy-7,7-dimethyl-9-(oxazol-5-yl)-2-(1H-pyrazol-4-yl)-6H-chromeno[4,3-b]quinoline] | 4.7
22 | COC(=O)c1ccc2c(c1)C(C)(C)[C@@H]1COc3c(OC)cc(Br)cc3[C@H]1N2 [Number 152, (6aS,12aS)-methyl 2-bromo-6a,7,12,12a-tetrahydro-4-methoxy-7,7-dimethyl-6H-chromeno[4,3-b]quinoline-9-carboxylate] | 6.1
